Experimental findings from patent US4365989A, “2-Thiocyanomethylthio-4,4-dialkyl-5-substituted-thiazoline fungicides” (Chevron Research Company, priority 1982, dated 1982) are described below.

For one test, the system named is Septoria apii. The format is in vivo. The settings on record: 250 ppm; celery (Utah) plants.
The next test concerns Fusarium Moniliforme. The experiment in a line: Mycelial inhibition, Fusarium. The settings on record: Fusarium verticillioides, 24 hours, relative to standard DIFOLATAN
The format is cell-based. As for the experimental part: (§1) A number of the compounds of the present invention were evaluated for in-vitro fungicidal effectiveness by means of a mycelial inhibition test. This test is designed to measure the fungitoxic activity of fungicidal chemicals in terms of their degree of inhibition of mycelium growth. Each compound to be tested was dissolved in acetone to 500 ppm concentration. Paper strips were infused with the particular mycelium growth by covering the paper with a potato dextrose broth culture of mycelial suspension. The papers were then placed on potato dextrose agar plates and sprayed by means of a microsprayer with the fungicidal solution. The treated paper strips were incubated at 25° C. and the data is taken after 24 hours. Fungicidal activities are measured by a zone of inhibited mycelial growth from the center of the paper strip. The effectiveness of the compounds tested for fungicidal activity is reported in Table IIa for those compounds which were effective in inhibiting mycelial growth. The activity is reported in terms of [formula]

In another test the test system is Aspergillus Niger. Put plainly: Mycelial inhibition, Aspergillus. The format is cell-based. The settings on record: 24 hours, relative to standard DIFOLATAN, read-out: Mycelial inhibition, % Standard, Asper. As for the experimental part: as §1
Test [1] has as its system Lambsquarter (Chenopodium album). Put plainly: Pre-emergent herbicidal test, Lambsquarter. The format is in vivo. The settings on record: 504 h, pre-emergence, 33 micrograms/cm^2, 3 weeks, read-out: Herbicidal Activity Pre-Emergence % Control L'Qtr. How it is done:
(§2) An acetone solution of the test compound was prepared by mixing 750 mg of the compound, 220 mg of a nonionic surfactant and 25 ml of acetone. This solution was added to approximately 125 ml of water containing 156 mg of surfactant.
(§3) Seeds of the test vegetation were planted in a pot of […] and the test solution was sprayed uniformly onto the soil surface at a dose of 33 micrograms/cm^2. The pot was watered and placed in a greenhouse. […] At the end of this period, the herbicidal effectiveness of the compound was rated based on the physiological observations. A 0-to-100 scale was used, 0 representing no phytotoxicity, 100 representing complete kill.

Test [2] has the same test system. The experiment in a line: Post-emergent herbicidal test, Lambsquarter. The settings on record: 504 h, post-emergence, 33 micrograms/cm^2, 3 weeks, read-out: Herbicidal Activity Post-Emergence % Control L'Qtr. The format is in vivo.
Test [3] has as its system Pigweed (Amaranthus retraflexus). Put plainly: Post-emergent herbicidal test, Pigweed. As to conditions: 504 h, post-emergence, 33 micrograms/cm^2, 3 weeks. The format is in vivo.
Test [4] concerns Crabgrass (Digitaria sanguinalis). Put plainly: Pre-emergent herbicidal test, Crabgrass. The format is in vivo. As to conditions: 504 h, pre-emergence, 33 micrograms/cm^2, 3 weeks. As for the experimental part: as §2, §3
Test [5] shares this test system. The experiment in a line: Post-emergent herbicidal test, Crabgrass. The format is in vivo. The settings on record: 504 h, post-emergence, 33 micrograms/cm^2, 3 weeks.
Another test has as its system Soybean. The experiment in a line: Post-emergent herbicidal test, Soybean. As to conditions: Glycine max, 504 h; post-emergence; 33 micrograms/cm^2; 3 weeks; read-out: Herbicidal Activity Post-Emergence % Control Soybean. The format is in vivo.
The subject of another test is Spirulina maxima. The experiment in a line: Algae control, Spirulina. The format is cell-based. As to conditions: Limnospira maxima, 7 to 10 days, read-out: Algicidal Activity % Control Spirulina. As for the experimental part:
Representative compounds of the invention were tested as aquatic herbicides and algicides by the following method. The weed test species were Lemna minor, Elodea canadensis and the algae used was Spirulina maxima.
An acetone solution of the test compound and a small amount of an alkylarylpolyoxyethylene glycol-containing surfactant was prepared. This solution was mixed with a nutrient solution in quantity sufficient to give a concentration of 2 ppm. Eight oz. plastic cups were filled with 150 ml of this solution. A sample of the test, Lemna and Elodea, was added together to each cup. Forty ml of Spirulina culture with the 2 ppm treatment was placed in 11/2 oz plastic cups (#4 glass vials used after June 9, 1980). The containers were then placed in an illuminated environment maintained at a temperature of about 20° C. for incubation. The containers were observed periodically for growth (as compared to an untreated check). The effectiveness of the test compound was determined based on a final observation of growth after 7 to 10 days. The results of the test on a 0-to-100 basis--0 indicating no effectiveness and 100 indicating complete effectiveness--are reported in Table IV.

Another test has as its system Piricularia oryzae. The format is in vivo. As to conditions: 625 ppm; rice seedlings Calrose M-9.
Another test relates to Pythium Ultimum. The experiment in a line: Mycelial inhibition, Pythium. The format is cell-based. As to conditions: Globisporangium ultimum, 24 hours, relative to standard DIFOLATAN
How it is done: as §1

The inhibition is the change of the read-out against control, counted positive when it falls. As to `CC1(C)N=C(SCSC#N)SC1=CSc1ccc(Cl)cc1` [Compound 1, 2-thiocyanomethylthio-4,4-dimethyl-5-(4-chlorophenylthio)methylenethiazoline], in the test with Septoria apii, the “% Control Cel. L. Bl.” value worked out at 70%. In addition, the inhibition at 500 ppm in the test on Fusarium Moniliforme and in the test on Aspergillus Niger was 0% each time. For the same molecule, the pest or weed control at 33 µg/cm2 in test [1], in [2], in [3], in test [4] and in [5] was 0% throughout. Besides, the plant injury at 33 µg/cm2 with Soybean was 0%. In the test on Spirulina maxima, the activity at 2 ppm turned out to be 0%.
As for `CC1(C)N=C(SCSC#N)SC1=C(Cl)Cl` [Compound 2, 2-thiocyanomethylthio-4,4-dimethyl-5-dichloromethylenethiazoline], in the test with Septoria apii, the “% Control Cel. L. Bl.” value is given as 35%. In addition, the inhibition at 500 ppm with Fusarium Moniliforme turned out to be 29%; with Aspergillus Niger, 107%. Moreover, the pest or weed control at 33 µg/cm2 in test [1] came out at 0%; in test [2], 40%; in test [3], 55%; in [4] it was 0%; in test [5], 25%. Besides, the plant injury at 33 µg/cm2 in the test with Soybean stood at 10%. Moreover, the activity at 2 ppm in the test with Spirulina maxima is 45%.
`CCC1(CC)N=C(SCSC#N)SC1=CBr` [Compound 5, 2-thiocyanomethylthio-4,4-diethyl-5-bromo-methylenethiazoline]: the “% Control Cel. L. Bl.” value with Septoria apii came to 96%. The “% Control Rice Blast” value in the test on Piricularia oryzae was 90%. Besides, the inhibition at 500 ppm with Pythium Ultimum was 0%; in the test with Fusarium Moniliforme, 0%; in the test on Aspergillus Niger, 50%. Also, the pest or weed control at 33 µg/cm2 was 0% in test [1]; 33% in [2]; 35% in test [3]; 0% in [4]; 30% in test [5]. Besides, in the test on Soybean, the plant injury at 33 µg/cm2 turned out to be 20%. Moreover, in the test with Spirulina maxima, the activity at 2 ppm was 40%.
Turning to `C=C1SC(SCSC#N)=NC1(CC)CC` [Compound 6, 2-thiocyanomethylthio-4,4-diethyl-5-methylenethiazoline], the “% Control Cel. L. Bl.” value with Septoria apii amounted to 0%. The figures for the inhibition at 500 ppm in the test with Pythium Ultimum, in the test with Fusarium Moniliforme and in the test with Aspergillus Niger were 31%, 31% and 77%, respectively. For the same molecule, the pest or weed control at 33 µg/cm2 in [1] was 73%; in test [2] it was 55%; in test [3], 35%; in test [4] it was 0%; in [5] it was 45%. In the test with Soybean, the plant injury at 33 µg/cm2 is 15%. The activity at 2 ppm in the test with Spirulina maxima stood at 75%.
With `C=C1SC(SCSC#N)=NC1(C)C` [Compound 7, 2-Thiocyanomethylthio-4,4-dimethyl-5-methylenethiazoline], the inhibition at 500 ppm in the test with Pythium Ultimum is 55%; in the test on Fusarium Moniliforme, 32%; with Aspergillus Niger, 32%. Besides, the pest or weed control at 33 µg/cm2 in test [1] is 60%; in test [2] it was 55%; in test [3], 35%; in test [4], 0%; in test [5], 35%. For the same molecule, the plant injury at 33 µg/cm2 in the test with Soybean stood at 0%. Moreover, the activity at 2 ppm with Spirulina maxima is 90%.
As to `C=C1SC(SCSC#N)=NC12CCCCC2` [Compound 8], the inhibition at 500 ppm in the test with Pythium Ultimum was found to be 0%; in the test on Fusarium Moniliforme, 0%; in the test on Aspergillus Niger it was 77%. Moreover, the pest or weed control at 33 µg/cm2 is 0% in [1]; 40% in test [2]; 50% in test [3]; 0% in [4]; 20% in test [5]. The plant injury at 33 µg/cm2 with Soybean stood at 33%. For the same molecule, the activity at 2 ppm in the test with Spirulina maxima worked out at 70%.
